Laboratory results published in patent US4233224A, “Coriolin derivatives” (priority 1978, dated 1980).
Converted amounts (≈) assume the structure as drawn. Where two headings read alike, the source gives them in different places.

What was measured:
[1] = system: L-1210 (lymphatic leukemia strain); assay: Life-prolonging effect in cancer (L-1210) affected mice; type: in vivo, mouse (BDF1); conditions: once a day for 10 days, from 24 hours after intraperitoneal inoculation of 1×10^5 L-1210 cells, BDF1 mice, compared with control group
Protocol: The L-1210 cells (1×10^5, 0.05 ml) were inoculated into the BDF1 mouse abdorminal cavities (BDF1 means a strain name of mouse), and after lapse of 24 hours, a measured amount of preparation (suspended in 0.5% CMC aqueous solution) was administered once a day for a period of 10 days.
The mice were observed till death, and by comparing the average number of surviving days of the tested mice with that of the control group (to which a 0.5% CMC aqueous solution alone was given), the life prolongation rate was calculated from the following formula: [drawing 17]

HeLa S3 cells [2] = assay: cells; type: cell-based; conditions: for inhibition at 2 µg/mL: 2 μg/ml; for inhibition at 1 µg/mL: 1 μg/ml
Protocol: The HeLa S3 cells were scattered in a plastic laboratory dish, 6 cm in diameter, at the rate of 0.7×10^5 cells/plate by using as a medium an Eagle's MEM (Minimum Essential Medium) [Science, 30, 432-437 (1959)] containing 60 μg/ml of kanamycin and 10% calf serum. On the 2nd day, the medium was removed and a measured quantity of the compound of this invention was added together with a fresh serum-impregnated Eagle's MEM. The cell population at this time was 1.58×10^5 cells/plate. After adding the compound (I) of this invention thereto, cultures were grown for 3 days and then the medium was removed, followed by washing with physiological saline, treatment with 0.05% trypsin at room temperature for about 15 minutes and pipetting to disperse the cells. The cell number was counted by a counter and percent inhibition (%) was calculated from the number of the control cells (to which no compound was added) to determine […]. [formula]

HeLa S3 cells [3] = assay: cells; type: cell-based; conditions: Homo sapiens, 72 h, 3 days, read-out: ID50 (the source's name)
[4] = known coriolin type compounds; J. Antibiotics, Tetrahedron Letters; cited from earlier work
[5] = Homo sapiens, HeLa S3, 72 h, read-out: Percent inhibition
[6] = Homo sapiens, 72 h, HeLa S3 cells, 3 days, read-out: Percent inhibition
[7] = Homo sapiens, 72 h, 0.5 μg/ml, HeLa S3 cells, 3 days, read-out: Percent inhibition

## C=C1CC2(OC1=O)[C@H]1O[C@]13C1(CC(=C)C(=O)O1)[C@H]1CC(C)(C)[C@H](OC(=O)CCCCCCC)[C@H]1[C@]3(C)[C@]21CO1 (stereo partly drawn) [V, 1α-octanoyl-4β,15:6β,7β-dioxide-5(19-methylene-18-butanolide)-8(22-methylene-21-butanolide)hirsutane]
[1]; dose 100 μg/mouse × 10
  Life-prolonging effect (life prolongation rate): 99%
[1]; dose 200 μg/mouse × 10
  Life-prolonging effect (life prolongation rate): 120%
HeLa S3 cells [2]; Homo sapiens, HeLa S3, 72 h, read-out: ID50
  IC50: 0.47 µg/mL (≈ 0.869 µM)
HeLa S3 cells [2]; [5]
  inhibition at 0.25 µg/mL: 22.4%
  inhibition at 0.5 µg/mL: 56.9%

## C=C1CC2(OC1=O)[C@H]1CC(C)(C)[C@H](OC(=O)CCCCCCC)[C@H]1[C@]1(C)[C@]3(CO3)[C@@H](O)[C@H]3O[C@@]321 (stereo partly drawn) [I, 1α-octanoyl-4β, 15:6β,7β-dioxide-5β-hydroxy-8(22-methylene-21-butanolide)hirsutane]
[1]; dose 50 μg/mouse × 10
  Life-prolonging effect (life prolongation rate): 96%
[1]; dose 100 μg/mouse × 10
  Life-prolonging effect (life prolongation rate): 111%
[1]; dose 200 μg/mouse × 10
  Life-prolonging effect (life prolongation rate): 130%
HeLa S3 cells [2]; [6]
  inhibition at 2 µg/mL: 48%
HeLa S3 cells [2]; Homo sapiens, 72 h, 4 μg/ml, HeLa S3 cells, 3 days, read-out: Percent inhibition
  inhibition at 4 µg/mL: 76.2%
HeLa S3 cells [3]
  IC50: 2.1 µg/mL (≈ 4.42 µM)

## C=C1CC2(OC1=O)[C@H]1O[C@]13C(=O)[C@H]1CC(C)(C)[C@H](OC(=O)CCCCCCC)[C@H]1[C@]3(C)[C@]21CO1 (stereo partly drawn) [IV, 1α-octanoyl-4β,15:6β,7β-dioxide-5(19-methylene-18-butanolide)-8-oxo-hirsutane]
[1]; dose 12.5 μg/mouse × 10
  Life-prolonging effect (life prolongation rate): 99%
[1]; dose 25 μg/mouse × 10
  Life-prolonging effect (life prolongation rate): 113%
[1]; dose 50 μg/mouse × 10
  Life-prolonging effect (life prolongation rate): 106%
[1]; dose 100 μg/mouse × 10
  Life-prolonging effect (life prolongation rate): 127%
[1]; dose 200 μg/mouse × 10
  Life-prolonging effect (life prolongation rate): 127%
HeLa S3 cells [2]; [7]
  inhibition at 0.5 µg/mL: 43.3%
HeLa S3 cells [2]; [6]
  inhibition at 1 µg/mL: 71.6%
HeLa S3 cells [3]
  IC50: 0.6 µg/mL (≈ 1.27 µM)

## coriolin C
[4]
  anti-tumor activity (in words): having an anti-tumor activity

## CCCCCCCC(=O)O[C@@H]1[C@@H]2[C@H](CC1(C)C)C(=O)[C@@]13O[C@@H]1C(=O)[C@@]1(CO1)[C@@]23C [5,8-dehydrocoriolin B]
[4]
  anti-tumor activity (in words): having an anti-tumor activity

## coriolin
[4]
  anti-tumor activity (in words): having an anti-tumor activity

## CCCCCCCC(=O)O[C@@H]1[C@@H]2[C@H](CC1(C)C)[C@H](O)[C@@]13O[C@@H]1C(=O)[C@@]1(CO1)[C@@]23C [5-dehydrocoriolin B VI, 5-dehydrocoriolin B, reference compound]
[1]; dose 6 μg/mouse × 10
  Life-prolonging effect (life prolongation rate): 106%
[1]; dose 12.5 μg/mouse × 10
  Life-prolonging effect (life prolongation rate): 138%
[1]; dose 25 μg/mouse × 10
  Life-prolonging effect (life prolongation rate): 137%
[1]; dose 50 μg/mouse × 10
  Life-prolonging effect (life prolongation rate): 144%
[4]
  anti-tumor activity (in words): having an anti-tumor activity
HeLa S3 cells [2]; [7]
  inhibition at 0.5 µg/mL: 20%
HeLa S3 cells [2]; [6]
  inhibition at 1 µg/mL: 77.6%
HeLa S3 cells [3]
  IC50: 0.76 µg/mL (≈ 1.87 µM)

## C=C1CC2(OC1=O)[C@H]1CC(C)(C)[C@H](OC(=O)CCCCCCC)[C@H]1[C@]1(C)[C@]3(CO3)C(=O)[C@H]3O[C@@]321 (stereo partly drawn) [II, 1α-octanoyl-4β,15:6β,7β-dioxide-5-oxo-8(22-methylene-21-butanolide)hirsutane]
HeLa S3 cells [2]; HeLa S3 cells
  inhibiting growth of the HeLa S3 cells (in words): works marvelously in preventing growth of the cancerous cells
HeLa S3 cells [2]; Homo sapiens, 72 h, 0.1 μg/ml, HeLa S3 cells, 3 days, read-out: Percent inhibition
  inhibition at 0.1 µg/mL: 40.2%
HeLa S3 cells [2]; Homo sapiens, 72 h, 0.2 μg/ml, HeLa S3 cells, 3 days, read-out: Percent inhibition
  inhibition at 0.2 µg/mL: 83.2%
HeLa S3 cells [2]; stated with ID50, HeLa S3 cells
  toxicity (in words): extremely low in toxicity
HeLa S3 cells [3]
  IC50: 0.12 µg/mL (≈ 0.254 µM)

## C=C1CC2(OC1=O)[C@H]1O[C@]13[C@@H](O)[C@H]1CC(C)(C)[C@H](OC(=O)CCCCCCC)[C@H]1[C@]3(C)[C@]21CO1 (stereo partly drawn) [III, 1α-octanoyl-4β,15:6β,7β-dioxide-5(19-methylene-18-butanolide)-8β-hydroxy-hirsutane]
[1]; dose 6 μg/mouse × 10
  Life-prolonging effect (life prolongation rate): 99%
[1]; dose 12.5 μg/mouse × 10
  Life-prolonging effect (life prolongation rate): 106%
[1]; dose 25 μg/mouse × 10
  Life-prolonging effect (life prolongation rate): 127%
[1]; dose 50 μg/mouse × 10
  Life-prolonging effect (life prolongation rate): 141%
[1]; dose 100 μg/mouse × 10
  Life-prolonging effect (life prolongation rate): 148%
[1]; dose 200 μg/mouse × 10
  Life-prolonging effect (life prolongation rate): 148%
HeLa S3 cells [2]; [6]
  inhibition at 1 µg/mL: 42.9%
  inhibition at 2 µg/mL: 96.6%
HeLa S3 cells [3]
  IC50: 1.1 µg/mL (≈ 2.32 µM)
